Patent US8163929B2, “Dihydropyridone amides as P2X7 modulators” (Roche Palo Alto LLC, priority 2008, dated 2012)
One block for each compound: values may come before it.

Target: T1, P2X7 (UniProt Q99572)
T1 sequence (Q99572 1-595): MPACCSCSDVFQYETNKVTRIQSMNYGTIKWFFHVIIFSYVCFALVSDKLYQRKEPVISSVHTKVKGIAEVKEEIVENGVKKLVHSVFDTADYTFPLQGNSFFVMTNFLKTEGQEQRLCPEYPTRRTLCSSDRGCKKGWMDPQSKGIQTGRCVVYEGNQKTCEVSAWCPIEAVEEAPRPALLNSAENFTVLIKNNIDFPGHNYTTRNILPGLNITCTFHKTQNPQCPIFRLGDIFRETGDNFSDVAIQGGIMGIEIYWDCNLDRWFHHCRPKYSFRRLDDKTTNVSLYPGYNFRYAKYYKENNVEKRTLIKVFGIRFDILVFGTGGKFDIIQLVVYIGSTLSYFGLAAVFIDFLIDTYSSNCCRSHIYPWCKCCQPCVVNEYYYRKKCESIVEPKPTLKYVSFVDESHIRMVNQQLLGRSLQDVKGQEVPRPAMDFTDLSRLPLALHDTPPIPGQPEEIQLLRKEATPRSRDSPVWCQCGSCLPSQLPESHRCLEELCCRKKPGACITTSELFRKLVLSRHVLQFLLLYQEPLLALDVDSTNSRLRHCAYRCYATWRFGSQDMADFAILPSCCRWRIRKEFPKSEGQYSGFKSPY
Assay: P2X7 activity of Table 1
Assay type: cell-based
Conditions: pIC50 values for P2X7
Procedure, shortened: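 FLIPR calcium flux with fluo-3 in 1321N1 cells expressing human P2X7 and HEK293 cells expressing rat P2X7, in HBSS with 2 mM CaCl2 and 2.5 mM probenecid. Antagonist pre-incubated 20 min at room temperature, then BzATP added (100 μM human, 5 μM rat). Peak response over 5 min normalised to 5 μM ionomycin.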

Structure (SMILES): Cc1ccc(-n2ncc(=O)n(C)c2=O)cc1NC(=O)C1=CN(C)C(=O)C[C@H]1c1ccc(F)cc1 [Compound 68, (S)-4-(4-Fluoro-phenyl)-1-methyl-6-oxo-1,4,5,6-tetrahydro-pyridine-3-carboxylic acid [2-methyl-5-(4-methyl-3,5-dioxo-4,5-dihydro-3H-[1,2,4]triazin-2-yl)-phenyl]-amide]
- pIC50: 7.01

Structure (SMILES): Cc1ccc(-c2cc(C)n(CCO)n2)cc1NC(=O)C1=CNC(=O)C[C@H]1c1cccc(F)c1 [Compound 69, (S)-4-(3-Fluoro-phenyl)-6-oxo-1,4,5,6-tetrahydro-pyridine-3-carboxylic acid {5-[1-(2-hydroxy-ethyl)-5-methyl-1H-pyrazol-3-yl]-2-methyl-phenyl}-amide]
- pIC50: 7.92

Structure (SMILES): Cc1ccc(-c2cc(C)n(CCO)n2)cc1NC(=O)C1=CN(C)C(=O)C[C@H]1c1cccc(F)c1 [Compound 70, (S)-4-(3-Fluoro-phenyl)-1-methyl-6-ox-1,4,5,6-tetrahydro-pyridine-3-carboxylic acid {5-[1-(2-hydroxy-ethyl)-5-methyl-1H-pyrazol-3-yl]-2-methyl-phenyl}-amide]
- pIC50: 7.72

Structure (SMILES): Cc1ccc(-c2ccnn(C)c2=O)cc1NC(=O)C1=CNC(=O)C[C@H]1c1ccc(F)cc1 [Compound 71, (S)-4-(4-Fluoro-phenyl)-6-oxo-1,4,5,6-tetrahydro-pyridine-3-carboxylic acid [2-methyl-5-(2-methyl-3-oxo-2,3-dihydro-pyridazin-4-yl)-phenyl]-amide]
- pIC50: 8.395

Structure (SMILES): Cc1ccc(-c2ccn[nH]c2=O)cc1NC(=O)C1=CN(C)C(=O)C[C@H]1c1ccc(F)cc1 [Compound 72, (S)-4-(4-Fluoro-phenyl)-1-methyl-6-oxo-1,4,5,6-tetrahydro-pyridine-3-carboxylic acid [2-methyl-5-(3-oxo-2,3-dihydro-pyridazin-4-yl)-phenyl]-amide]
- pIC50: 7.8367

Structure (SMILES): Cc1ccc(-c2cc(C)n(C[C@@H](C)O)n2)cc1NC(=O)C1=CN(C)C(=O)C[C@H]1c1ccc(F)cc1 [Compound 73, (S)-4-(4-Fluoro-phenyl)-1-methyl-6-oxo-1,4,5,6-tetrahydro-pyridine-3-carboxylic acid {5-[1-((R)-2-hydroxy-propyl)-5-methyl-1H-pyrazol-3-yl]-2-methyl-phenyl}-amide]
- pIC50: 7.255

Structure (SMILES): Cc1ccc(-c2cc(C)n(C[C@H](C)O)n2)cc1NC(=O)C1=CN(C)C(=O)C[C@H]1c1ccc(F)cc1 [Compound 74, (S)-4-(4-Fluoro-phenyl)-1-methyl-6-oxo-1,4,5,6-tetrahydro-pyridine-3-carboxylic acid {5-[1-((S)-2-hydroxy-propyl)-5-methyl-1H-pyrazol-3-yl]-2-methyl-phenyl}-amide]
- pIC50: 7.47

Structure (SMILES): COC[C@H](O)Cn1nc(-c2ccc(C)c(NC(=O)C3=CNC(=O)C[C@H]3c3ccc(F)cc3)c2)cc1C [Compound 75, (S)-4-(4-Fluoro-phenyl)-6-oxo-1,4,5,6-tetrahydro-pyridine-3-carboxylic acid {5-[1-((R)-2-hydroxy-3-methoxy-propyl)-5-methyl-1H-pyrazol-3-yl]-2-methyl-phenyl}-amide]
- pIC50: 7.72

Structure (SMILES): COC[C@H](O)Cn1nc(-c2ccc(C)c(NC(=O)C3=CN(C)C(=O)C[C@H]3c3ccc(F)cc3)c2)cc1C [Compound 76, (S)-4-(4-Fluoro-phenyl)-1-methyl-6-oxo-1,4,5,6-tetrahydro-pyridine-3-carboxylic acid {5-[1-((R)-2-hydroxy-3-methoxy-propyl)-5-methyl-1H-pyrazol-3-yl]-2-methyl-phenyl}-amide]
- pIC50: 7.45

Structure (SMILES): COC[C@H](O)Cn1c(=O)cnn(-c2ccc(C)c(NC(=O)C3=CN(C)C(=O)C[C@H]3c3ccc(F)cc3)c2)c1=O [Compound 77, (S)-4-(4-Fluoro-phenyl)-1-methyl-6-oxo-1,4,5,6-tetrahydro-pyridine-3-carboxylic acid {5-[4-((R)-2-hydroxy-3-methoxy-propyl)-3,5-dioxo-4,5-dihydro-3H-[1,2,4]triazin-2-yl]-2-methyl-phenyl}-amide]
- pIC50: 7.5367

Structure (SMILES): Cc1ccc(=O)n(-c2ccc(C)c(NC(=O)C3=CNC(=O)C[C@H]3c3ccc(F)cc3)c2)n1 [Compound 78, (S)-4-(4-Fluoro-phenyl)-6-oxo-1,4,5,6-tetrahydro-pyridine-3-carboxylic acid [2-methyl-5-(3-methyl-6-oxo-6H-pyridazin-1-yl)-phenyl]-amide]
- pIC50: 7.31

Structure (SMILES): Cc1cncc(-c2ccc(C)c(NC(=O)C3=CNC(=O)C[C@H]3c3ccc(F)cc3)c2)n1 [Compound 79, (S)-4-(4-Fluoro-phenyl)-6-oxo-1,4,5,6-tetrahydro-pyridine-3-carboxylic acid [2-methyl-5-(6-methyl-pyrazin-2-yl)-phenyl]-amide]
- pIC50: 6.58

Structure (SMILES): Cc1ccnc(-c2ccc(C)c(NC(=O)C3=CNC(=O)C[C@H]3c3ccc(F)cc3)c2)n1 [Compound 80, (S)-4-(4-Fluoro-phenyl)-6-oxo-1,4,5,6-tetrahydro-pyridine-3-carboxylic acid [2-methyl-5-(4-methyl-pyrimidin-2-yl)-phenyl]-amide]
- pIC50: 7.315

Structure (SMILES): Cc1ccc(-c2ccnn(C)c2=O)cc1NC(=O)C1=CN(C)C(=O)C[C@H]1c1ccc(F)cc1 [Compound 81, (S)-4-(4-Fluoro-phenyl)-1-methyl-6-oxo-1,4,5,6-tetrahydro-pyridine-3-carboxylic acid [2-methyl-5-(2-methyl-3-oxo-2,3-dihydro-pyridazin-4-yl)-phenyl]-amide]
- pIC50: 7.94

Structure (SMILES): Cc1ccc(-c2cncc(=O)[nH]2)cc1NC(=O)C1=CNC(=O)C[C@H]1c1ccc(F)cc1 [Compound 82, (S)-4-(4-Fluoro-phenyl)-6-oxo-1,4,5,6-tetrahydro-pyridine-3-carboxylic acid [2-methyl-5-(6-oxo-1,6-dihydro-pyrazin-2-yl)-phenyl]-amide]
- pIC50: 5.395

Structure (SMILES): Cc1ccc(-c2cc(C)n(CC(=O)O)n2)cc1NC(=O)C1=CNC(=O)C[C@H]1c1ccc(F)cc1 [Compound 83, [3-(3-{[(S)-4-(4-Fluoro-phenyl)-6-oxo-1,4,5,6-tetrahydro-pyridine-3-carbonyl]-amino}-4-methyl-phenyl)-5-methyl-pyrazol-1-yl]-acetic acid]
- pIC50: 6.335

Further lines, results first:

- pIC50: 7.53
Structure (SMILES): Cc1ccc(-c2ccn(CCO)n2)cc1NC(=O)C1=CNC(=O)C[C@H]1c1ccc(F)cc1 [Compound 84, (S)-4-(4-Fluoro-phenyl)-6-oxo-1,4,5,6-tetrahydro-pyridine-3-carboxylic acid {5-[1-(2-hydroxy-ethyl)-1H-pyrazol-3-yl]-2-methyl-phenyl}-amide]

- pIC50: 7.375
Structure (SMILES): Cc1ccc(-c2cc(C)n(CCO)n2)cc1NC(=O)C1=CNC(=O)CC1c1ccc(F)c(F)c1 (stereo not drawn) [Compound 85, 4-(3,4-Difluoro-phenyl)-6-oxo-1,4,5,6-tetrahydro-pyridine-3-carboxylic acid {5-[1-(2-hydroxy-ethyl)-5-methyl-1H-pyrazol-3-yl]-2-methyl-phenyl}-amide]

- pIC50: 7.62
Structure (SMILES): Cc1ccc(-c2ccnn(C)c2=O)cc1NC(=O)C1=CN(C)C(=O)C[C@H]1c1cccc(F)c1 [Compound 86, (S)-4-(3-Fluoro-phenyl)-1-methyl-6-oxo-1,4,5,6-tetrahydro-pyridine-3-carboxylic acid [2-methyl-5-(2-methyl-3-oxo-2,3-dihydro-pyridazin-4-yl)-phenyl]-amide]

- pIC50: 7.884
Structure (SMILES): Cc1ccc(-c2ccn[nH]c2=O)cc1NC(=O)C1=CN(C)C(=O)C[C@H]1c1cccc(F)c1 [Compound 87, (S)-4-(3-Fluoro-phenyl)-1-methyl-6-oxo-1,4,5,6-tetrahydro-pyridine-3-carboxylic acid [2-methyl-5-(3-oxo-2,3-dihydro-pyridazin-4-yl)-phenyl]-amide]

- pIC50: 7.53
Structure (SMILES): Cc1ccc(-n2ncccc2=O)cc1NC(=O)C1=CNC(=O)C[C@H]1c1cccc(F)c1 [Compound 89, (S)-4-(3-Fluoro-phenyl)-6-oxo-1,4,5,6-tetrahydro-pyridine-3-carboxylic acid [2-methyl-5-(6-oxo-6H-pyridazin-1-yl)-phenyl]-amide]

- pIC50: 7.2
Structure (SMILES): COC[C@H](O)Cn1nc(-c2ccc(C)c(NC(=O)C3=CN(C)C(=O)C[C@H]3c3cccc(F)c3)c2)cc1C [Compound 90, (S)-4-(3-Fluoro-phenyl)-1-methyl-6-oxo-1,4,5,6-tetrahydro-pyridine-3-carboxylic acid {5-[1-((R)-2-hydroxy-3-methoxy-propyl)-5-methyl-1H-pyrazol-3-yl]-2-methyl-phenyl}-amide]

- pIC50: 7.15
Structure (SMILES): COC[C@@H](O)Cn1nc(-c2ccc(C)c(NC(=O)C3=CNC(=O)C[C@H]3c3ccc(F)cc3)c2)cc1C [Compound 91, (S)-4-(4-Fluoro-phenyl)-6-oxo-1,4,5,6-tetrahydro-pyridine-3-carboxylic acid {5-[1-((S)-2-hydroxy-3-methoxy-propyl)-5-methyl-1H-pyrazol-3-yl]-2-methyl-phenyl}-amide]

- pIC50: 6.615
Structure (SMILES): COC[C@@H](O)Cn1nc(-c2ccc(C)c(NC(=O)C3=CN(C)C(=O)C[C@H]3c3ccc(F)cc3)c2)cc1C [Compound 92, (S)-4-(4-Fluoro-phenyl)-1-methyl-6-oxo-1,4,5,6-tetrahydro-pyridine-3-carboxylic acid {5-[1-((S)-2-hydroxy-3-methoxy-propyl)-5-methyl-1H-pyrazol-3-yl]-2-methyl-phenyl}-amide]
